Data set [1] in a line: (§1) Competitive binding affinity to Xenopus laevis PAM using (R)-Tyr-(S)-ValGly as substrate after 1 hr by HPLC analysis.
For data set [2], the target named is T1, Peptidyl-glycine alpha-amidating monooxygenase (Homo sapiens, UniProt P19021).
T1 sequence (P19021 whole entry): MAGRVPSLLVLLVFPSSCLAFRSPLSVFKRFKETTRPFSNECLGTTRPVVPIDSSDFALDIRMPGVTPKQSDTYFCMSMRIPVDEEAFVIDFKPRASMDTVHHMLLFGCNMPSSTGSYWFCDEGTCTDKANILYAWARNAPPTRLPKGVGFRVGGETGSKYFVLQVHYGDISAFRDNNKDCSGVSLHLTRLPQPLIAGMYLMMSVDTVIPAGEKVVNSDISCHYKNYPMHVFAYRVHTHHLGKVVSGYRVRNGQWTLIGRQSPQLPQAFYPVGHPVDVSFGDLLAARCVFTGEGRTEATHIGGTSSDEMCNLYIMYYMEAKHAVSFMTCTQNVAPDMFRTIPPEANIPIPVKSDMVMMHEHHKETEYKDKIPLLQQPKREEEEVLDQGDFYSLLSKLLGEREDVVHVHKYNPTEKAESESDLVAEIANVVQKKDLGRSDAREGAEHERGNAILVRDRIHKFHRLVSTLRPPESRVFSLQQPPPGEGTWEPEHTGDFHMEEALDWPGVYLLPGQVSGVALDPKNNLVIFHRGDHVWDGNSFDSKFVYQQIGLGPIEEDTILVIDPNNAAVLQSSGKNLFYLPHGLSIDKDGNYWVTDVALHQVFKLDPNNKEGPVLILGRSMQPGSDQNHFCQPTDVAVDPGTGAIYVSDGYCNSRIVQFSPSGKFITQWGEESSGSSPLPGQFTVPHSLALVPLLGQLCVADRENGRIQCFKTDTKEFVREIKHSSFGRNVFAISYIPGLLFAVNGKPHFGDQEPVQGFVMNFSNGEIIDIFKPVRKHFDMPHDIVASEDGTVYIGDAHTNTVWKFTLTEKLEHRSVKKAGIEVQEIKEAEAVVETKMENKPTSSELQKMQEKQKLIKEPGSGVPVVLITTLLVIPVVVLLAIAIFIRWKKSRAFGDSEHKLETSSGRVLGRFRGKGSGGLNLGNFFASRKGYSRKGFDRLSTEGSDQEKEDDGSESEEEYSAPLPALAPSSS
Put plainly: (§2) Competitive binding affinity to PAM extracted from human H889 cells using (R)-Tyr-(S)-ValGly as substrate after 2 hrs by HPLC analysis.

The subject of the next data set is H889. Put plainly: Selectivity ratio of IC50 for Xenopus laevis PAM to IC50 for PAM extracted from human H889 cells. The class given is cell-based.
Data set [3] has as its target T1, Peptidyl-glycine alpha-amidating monooxygenase. The data set can be described thus: Competitive inhibition of PAM secreted from human PC3 cells by Dixon plot analysis. In kind it is cell-based, PC-3.
For the next data set, the species on record is Xenopus laevis. The data set is described as §1.
Data set [4] deals with T1, Peptidyl-glycine alpha-amidating monooxygenase. Put plainly: Competitive binding affinity to PAM extracted from human DMS53 cells using (R)-Tyr-(S)-ValGly as substrate after 2 hrs by HPLC analysis. Set-up: species or system DMS-53.
The target is the same in data set [5]. The data set can be described thus: Competitive binding affinity to PAM secreted from human DMS53 cells using (R)-Tyr-(S)-ValGly as substrate after 2 hrs by HPLC analysis. Set-up: species or system DMS-53.
The target is the same in data set [6]. Put plainly: Competitive binding affinity to PAM secreted from human SW1783 cells using (R)-Tyr-(S)-ValGly as substrate after 2 hrs by HPLC analysis.
For data set [7] the target is unchanged. Put plainly: Competitive binding affinity to PAM extracted from human PC3 cells using (R)-Tyr-(S)-ValGly as substrate after 2 hrs by HPLC analysis. Set-up: species or system PC-3.
Data set [8] addresses T2, Peptidyl-glycine alpha-amidating monooxygenase (Homo sapiens) (UniProt P19021).
T2 sequence (whole entry): T1 sequence (P19021 whole entry)
Put plainly: Potency index, ratio of Procalcitonin Km(app) to compound IC50 for PAM extracted from human DMS53 cells. The class given is cell-based. The conditions noted are these: DMS-53.

For data set [9], the target named is T2, Peptidyl-glycine alpha-amidating monooxygenase (Homo sapiens). Put plainly: Potency index, ratio of Procalcitonin Km(app) to compound IC50 for PAM extracted from human H889 cells. The class given is cell-based.
Data set [10] concerns the target Peptidyl-glycine alpha-amidating monooxygenase (Homo sapiens) (UniProt P19021). Put plainly: Competitive binding affinity to PAM extracted from human H889 cells using (R)-Tyr-(S)-ValGly as substrate after 2 hrs by HPLC analysis.
Substrate in data set [11]: CC(=O)N[C@@H](Cc1ccccc1)C(=O)NCC(=O)O
The description is as §2.

Substrate in data set [12]: O=C(O)CNC(=O)Cc1ccccc1
The data set is described as §2.

Where a SMILES comes first, the peptide text is derived from it.

For the molecule `O=C(O)COC(=O)c1ccccc1`, the 50% inhibitory concentration (IC50) (in general, the concentration that gives 50% inhibition) in [1] was 250 µM.

With `CC(=O)N[C@@H](Cc1ccccc1)C(=O)SCC(=O)O`, the figures for the IC50 in [2] and in [1] were 45000 nM and 25 µM, respectively.

As to `CCCCCCCC(=O)OCC(=O)O`, in [1], the IC50 turned out to be 250 µM.

On to `O=C(O)COC(=O)Cc1ccccc1`, for which the IC50 in [2] was determined as 2000 nM; in data set [1] it was 510 µM. The Ratio IC50 in the data set with H889 was greater than 250.

In the case of `O=C(O)CSC(=O)Cc1ccccc1`, the IC50 in [2] amounted to 45000 nM; in data set [1] it was 20 µM.

For the molecule `O=C(O)C/C=C/c1ccccc1`, affinity in data set [3] was put at a Ki of 96 nM.

As to `O=C(O)CSC(=O)c1ccccc1`, the IC50 in [1] came to 150 µM.

For the molecule `O=C(O)CNC(=O)Cc1ccccc1`, in the data set listed under Xenopus laevis, the Km (in general, the concentration of substrate that gives half-maximal velocity) was 440 µM.

On to `CC(=O)N[C@@H](Cc1ccccc1)C(=O)NCC(=O)O` (Ac-Phe-Gly-OH), for which the Km in the data set filed under Xenopus laevis was found to be 170 µM.

As to `CCCCCCCCCC(=O)NCC(=O)O`, the IC50 in data set [4] came to 30 µM; in data set [5], 110 µM. Further, in the data set listed under Xenopus laevis, the Km came out at 440 µM.

Molecule `CC(=O)N[C@@H](CC(C)C)C(=O)SCC(=O)O` gave an IC50 in data set [1] of 260 µM.

Turning to `CCCCCC(=O)OCC(=O)O`, in data set [1], the concentration for half-maximal inhibition (IC50) stood at 780 µM.

The molecule `CSCC[C@H](NC(C)=O)C(=O)SCC(=O)O` came in with an IC50 in data set [1] of 50 µM.

Take `CCCCCCCCCC(=O)OCC(=O)O`: the 50% inhibitory concentration (IC50) in [2] was 50 nM; in [6] it was 30 µM; in [4], 0.04 µM; in data set [5], 30 µM; in [7], 120 nM; in [1] it was 40 µM. In addition, the Ratio IC50 with H889 is 800. Moreover, the Ratio is 5000 in data set [8] and 6000 in data set [9].

Regarding `CC(=O)N[C@@H](Cc1ccccc1)C(=O)OCC(=O)O`, the IC50 in data set [1] was greater than 2000 µM.

As to `CCCCCCCCCCCCCC(=O)OCC(=O)O`, the IC50 in [1] worked out at 30 µM.

As for `CCCCCCCCCCCC(=O)OCC(=O)O`, the IC50 came to 60 nM in [2] and 35 µM in data set [1].

On to `CCCCCCCCCC(=O)SCC(=O)O`, for which the IC50 in data set [1] was determined as 9 µM.

B1: Peptidyl-glycine alpha-amidating monooxygenase (Homo sapiens), P19021 (protein)
chain: T1 sequence (P19021 whole entry)
In the case of B1, the values for the Km in data set [10], in [11] and in data set [12] were 200 µM, 15 µM and 330 µM, respectively.
